What was measured:
[1] = 25° C.; as quoted by NIST reference database 46; cited from earlier work
[2] = Visual assessment of insulin lispro (100 U/ml) formulations with 0.4 mM EDTA and different surfactants after storage; assay type: physicochemical; details: insulin lispro 100 U/ml with 0.4 mM EDTA; for effect of surfactant on precipitation: 30° C. for 4 weeks
Experimental: (§1) European Pharmacepoeia Monograph (Particulate Contamination: Visible Particles).
(§2) The presence of any particles is recorded.
The effect of different surfactants was tested on stability of insulin lispro (100 U/ml) in the presence of 0.4 mM EDTA. The visual assessment method described in General Methods was used.

[3] = Size exclusion chromatography main peak of insulin lispro formulations after storage; assay type: physicochemical; details: insulin lispro 100 U/ml with 0.4 mM EDTA; 30° C. for 4 weeks
[4] = Visual Assessment Scoring Method B, insulin aspart (100 U/ml) with trisodium citrate, L-histidine or pyrophosphate, storage at 30° C.; assay type: physicochemical
Experimental: as §1, §2
(§3) Visual Assessment Scoring Method B
(§4) Visual score 1: Clear solution, virtually free of particles
(§5) Visual score 2: ˜5 very small particles
(§6) Visual score 3: ˜10-20 very small particles
(§7) Visual score 4: 20-50 particles, including larger particles
(§8) Visual score 5: >50 particles, including larger particles

[5] = Visual Assessment Scoring Method B, insulin lispro (100 U/ml) with citric acid, storage at indicated temperatures; details: insulin lispro 100 U/ml with citric acid 22 mM
Source text: The apparatus required consists of a viewing station comprising: • a matt black panel of appropriate size held in a vertical position • a non-glare white panel of appropriate size held in a vertical position next to the black panel • an adjustable lampholder fitted with a suitable, shaded, white-light source and with a suitable light diffuser (a viewing illuminator containing two 13 W fluorescent tubes, each 525 mm in length, is suitable).
Any adherent labels are removed from the container and the outside washed and dried. The container is gently swirled or inverted, ensuring that air bubbles are not introduced, and observed for about 5 s in front of the white panel. The procedure is repeated in front of the black panel. The presence of any particles is recorded.
Whilst the particles in samples with visual scores 4 and 5 are clearly detectable on casual visual assessment under normal light, samples with visual score 1-3 generally appear as clear solutions on the same assessment. Samples with visual scores 1-3 are considered to be “Pass”; samples with visual score 4-5 are considered to be “Fail”.
Stability of insulin lispro (100 U/ml) was investigated in formulations comprising citric acid (22 mM), both in the presence and in the absence of polysorbate 80.

[6] = Visual Assessment Scoring Method A, insulin aspart (100 U/ml) with 22 mM sodium citrate, storage at 30° C.; assay type: physicochemical
Experimental: as §1, §2
Visual Assessment Scoring Method A
Visual score 1: clear solution free of particles
Visual score 2: slight particle formation
Visual score 3: more significant precipitation

[7] = Visual Assessment Scoring Method B, insulin aspart (1000 U/ml) with trisodium citrate, L-histidine or pyrophosphate; assay type: physicochemical
Experimental: as §1, §2, §3, §4, §5, §6, §7, §8

[8] = Visual Assessment Scoring Method B, insulin aspart (1000 U/ml) with different concentrations of citric acid and polysorbate 80; assay type: physicochemical; details: insulin aspart 1000 U/ml with citric acid 44-88 mM
Experimental: as §1, §2, §3, §4, §5, §6, §7, §8
The stability of insulin aspart (1000 U/ml) was investigated in the presence of different concentrations of citric acid and different concentrations of polysorbate 80. […] Three concentrations of citric acid (44, 66 and 88 mM) and four concentrations of each non-ionic surfactant were tested as well as corresponding surfactant-free compositions.

## O=C(O)CN(CCN(CC(=O)O)CC(=O)O)CC(=O)O [EDTA, ethylenediaminetetraacetate]
[1]
  log K metal binding stability constant with respect to zinc binding: 14.5

## O=C(O)CN(CCOCCOCCN(CC(=O)O)CC(=O)O)CC(=O)O [EGTA, ethyleneglycoltetraacetate]
[1]
  log K metal binding stability constant with respect to zinc binding: 12.6

## CCCCCCCCCCCCC[N+](C)(C)Cc1ccccc1 [benzalkonium chloride]
[2]
  effect of surfactant on precipitation: prevented precipitation
[3]
  effect of surfactant on reduction in size of the main peak on SEC and RP-HPLC chromatograms: did not prevent

## CC(C)(C)CC(C)(C)c1ccc(OCCOCC[N+](C)(C)Cc2ccccc2)cc1 [benzethonium chloride]
[2]
  effect of surfactant on precipitation: prevented precipitation
[3]
  effect of surfactant on reduction in size of the main peak on SEC and RP-HPLC chromatograms: did not prevent

## O=C(O)CC(O)(CC(=O)O)C(=O)O [citrate]
[1]
  log K metal binding stability constant with respect to zinc binding: 4.93

## CCCCCCCCCCCCO[C@@H]1O[C@H](CO)[C@@H](O[C@H]2O[C@H](CO)[C@@H](O)[C@H](O)[C@H]2O)[C@H](O)[C@H]1O [dodecyl maltoside]
[2]
  effect of surfactant on precipitation: prevented precipitation
[3]
  effect of surfactant on reduction in size of the main peak on SEC and RP-HPLC chromatograms: did not prevent

## N[C@@H](Cc1c[nH]cn1)C(=O)O [histidine]
[1]
  log K metal binding stability constant with respect to zinc binding: 6.51

## O=P(O)(O)OP(=O)(O)O [pyrophosphate]
[1]
  log K metal binding stability constant with respect to zinc binding: 8.71

## poloxamer 188
[4]
  effect of surfactant on particle formation rate: worse than that of polysorbate 80
[5]
  effect of surfactant on destabilising effect of citric acid: notably weaker than that of polysorbate 80

## polyoxyethylene (20) sorbitan monolaurate [Polysorbate 20]
[4]
  effect of surfactant on particle formation rate: not effective at all
[5]
  effect of surfactant on destabilising effect of citric acid: notably weaker than that of polysorbate 80

## polyoxyethylene (20) sorbitan monooleate [polysorbate 80]
[2]; visual, SEC and RP-HPLC taken together
  stability after storage at 30° C. for 4 weeks: almost comparable with the EDTA-free control
[6]
  effect of surfactant on rate of particle formation: considerable reduction in the rate of particle formation
[4]
  effect of surfactant on particle formation rate: stabilising effect
[7]
  effect of surfactant on rate of particle formation: stabilising effect
[8]
  effect of surfactant on rate of particle formation: reduction in the rate of particle formation
[5]
  effect of surfactant on destabilising effect of citric acid: appeared to mitigate the destabilising effect
